Measurements taken from PMC7449411, “In silico discovery and biological validation of ligands of FAD synthase, a promising new antimicrobial target” (PLoS Computational Biology, 2020).

Columns and labels:
P. aeruginosa = experiment: MIC, resazurin broth microdilution; format: cell-based, Pseudomonas aeruginosa; conditions: media MH
S. thyphimurium = experiment: MIC, resazurin broth microdilution; format: cell-based, Salmonella thyphimurium; conditions: media MH
C. diphteriae = experiment: MIC, resazurin broth microdilution; format: cell-based, Corynebacterium diphteriae
L. monocytogenes = experiment: MIC, resazurin broth microdilution; format: cell-based, Listeria monocytogenes; conditions: media BHI
M. tuberculosis = experiment: MIC, resazurin broth microdilution; format: cell-based, Mycobacterium tuberculosis; conditions: M. tuberculosis, media 7H9G-ADC
FMNAT activity of CaFADS = target: T1, FMNAT activity of CaFADS (Corynebacterium ammoniagenes, UniProt Q59263); experiment: Inhibition of the FMNAT activity of CaFADS; format: biochemical; conditions: residual activity at 250 μM of compound, 25 °C
T1 construct: made in house; host or cells: Escherichia coli BL21(DE3)
T1 sequence (Q59263 whole entry): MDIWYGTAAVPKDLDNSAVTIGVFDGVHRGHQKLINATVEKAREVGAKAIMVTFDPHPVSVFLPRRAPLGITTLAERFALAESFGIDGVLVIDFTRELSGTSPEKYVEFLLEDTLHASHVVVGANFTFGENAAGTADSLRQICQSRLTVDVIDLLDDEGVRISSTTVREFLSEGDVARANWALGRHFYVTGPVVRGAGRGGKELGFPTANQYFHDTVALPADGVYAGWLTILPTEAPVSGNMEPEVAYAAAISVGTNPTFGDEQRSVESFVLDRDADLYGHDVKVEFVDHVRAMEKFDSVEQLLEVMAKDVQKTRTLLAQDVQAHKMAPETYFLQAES
Description: (§1) To determine the compound’s ability to inhibit the RFK and/or the FMNAT activities of CaFADS, both enzymatic activities were quantitatively measured in the absence and presence of the compounds following previously described protocols. Reaction mixtures contained 50 μM ATP, 5 μM RF in 20 mM PIPES, pH 7.0, 0.8 mM MgCl2, when assaying the RFK activity, and 50 μM ATP, 10 μM FMN in 20 mM PIPES, pH 7.0, 10 mM MgCl2 when measuring the FMNAT reaction. Each compound was tested at 250 μM (0.5% residual final concentration of DMSO) for each of the two enzymatic reactions. The samples were pre-incubated at 25 °C, the reaction was then initiated by the addition of ∼ 40 nM CaFADS (final concentration) and allowed for 1 min. Finally, the reaction was stopped by boiling the samples for 5 min and the denatured protein was eliminated through centrifugation. The transformation of RF into FMN and FAD (RFK activity) and of FMN into FAD (FMNAT activity) was evaluated through flavins separation by HPLC (Waters), as previously described. All the experiments were performed in triplicate. To evaluate the potency of compounds as inhibitors, we took advantage of the decrease in quantum yield of fluorescence when FMN is transformed into FAD, which allows to follow such transformation in a continuous system. Measurements were carried out using a microplate reader Synergy HT multimode plate reader (Biotek) with BRAND 96-well plates pure Grade. Reaction mixtures contained 5 μM RF or FMN, and 50 μM ATP in 20 mM PIPES, pH 7.0, 10 mM MgCl2, and the inhibitor compound in a 5-250 μM concentration range (2% residual final concentration of DMSO). Reactions were initiated through addition of 0.4 μM CaFADS, being the final reaction volume 100 μL. Flavin fluorescence (excitation at 440 nm and emission at 530 nm) was registered at 25 °C, every 50 s during 15 min. The fluorescence change per time unit (ΔF/Δt) was calculated as the slope of the resulting fluorescence decays recorded between 0 and 6 min (linear decay of the fluorescence). Controls which contained the reaction mixture without the enzyme and without any potential CaFADS inhibitory compound were included in the assay and referred as the 0% and 100% of enzymatic activity, respectively. IC50 was calculated as the concentration of compound required for a 50% inhibition of the enzymatic activity.

C. glutamicum = experiment: MIC, resazurin broth microdilution; format: cell-based, Corynebacterium glutamicum; conditions: media BHI
[1] = target: T2, RFK+FMNAT CaFADS activities (Corynebacterium ammoniagenes, UniProt Q59263); experiment: Inhibition of the RFK+FMNAT activity of CaFADS; format: biochemical; conditions: residual activity at 250 μM of compound, 25 °C
T2 construct: made in house; host or cells: Escherichia coli BL21(DE3)
T2 sequence (Q59263 whole entry): as above
Description: as §1

C. ammoniagenes = experiment: MIC, resazurin broth microdilution; format: cell-based, Corynebacterium ammoniagenes; conditions: C. ammoniagenes
S. aureus = experiment: MIC, resazurin broth microdilution; format: cell-based, Staphylococcus aureus; conditions: media MH
E. coli = experiment: MIC, resazurin broth microdilution; format: cell-based, Escherichia coli; conditions: media LB
S. pneumoniae = experiment: MIC, resazurin broth microdilution; format: cell-based, Streptococcus pneumoniae
M. smegmatis = experiment: MIC, resazurin broth microdilution; format: cell-based, Mycobacterium smegmatis; conditions: media 7H9G-ADC
CaFADS = target: T3, CaFADS (Corynebacterium ammoniagenes, UniProt Q59263); experiment: Differential scanning fluorescence (thermal denaturation) binding to CaFADS; conditions: 2 μM CaFADS, compound up to 250 μM
T3 construct: made in house; host or cells: Escherichia coli BL21(DE3)
T3 sequence (Q59263 whole entry): as above
Description: Interaction of compounds with CaFADS was evaluated using fluorescence thermal denaturation, on the bases of the shifts in denaturation midpoints of thermal curves of the protein [65]. Denaturations were performed in a Stratagene Agilent Mx3005p qPCR instrument (Santa Clara, US) following SYPR Orange (ThermoFisher Scientific) emission fluorescence (excitation at 492 nm and emission at 610 nm), which greatly increases when this probe binds to protein hydrophobic regions becoming solvent exposed upon thermal unfolding. Solutions containing 2 μM CaFADS with the studied compound in an increasing 5-250 μM concentration range (2% residual final concentration of DMSO) and 5xSYPR Orange in 20 mM PIPES pH 7.0, 10 mM MgCl2, with a 100 μL total volume were dispensed into 96-well microplates (BRAND 96-well plates pure grade™). After an initial 1 min incubation at 25 °C within the equipment, unfolding curves were registered from 25 to 100 °C at 1 °C·min^−1. Control experiments with CaFADS samples with/without DMSO were routinely performed in each microplate. For those compounds shifting midpoint denaturation temperature, Tm, the dissociation constant, Kd, was predicted by fitting the data to the equation [66] ΔTm/Tm=NRTm0/ΔH0ln(1+[L]/Kd), (2) which estimates the extent of the ligand-induced protein stabilization/destabilization. ΔTm=|Tm-Tm0| with Tm0 and Tm being the midpoint denaturation temperatures in the absence and the presence of ligand, respectively, and ΔH0 the unfolding enthalpy of the protein in the absence of ligand.

Compound | MIC (P. aeruginosa) | MIC (S. thyphimurium) | MIC (C. diphteriae; media MH) | MIC (L. monocytogenes) | MIC (M. tuberculosis) | FMNAT % Res. act. 250 μM (FMNAT activity of CaFADS) | MIC (C. glutamicum) | RFK+FMNAT % Res. act. 250 μM [1] | MIC (C. ammoniagenes; media MH) | MIC (C. ammoniagenes; media MH+DFO) | MIC (C. ammoniagenes; media MH+DIP) | MIC (C. ammoniagenes; media MH+DIP+DFO) | MIC (S. aureus) | MIC (E. coli) | MIC (S. pneumoniae; media BHI) | MIC (S. pneumoniae; media MH) | MIC (C. diphteriae; media BHI) | MIC (M. smegmatis) | MIC (C. ammoniagenes; media BHI) | Tm shift of CaFADS thermal denaturation (CaFADS)
O=C(NCCNc1ccc(C(F)(F)F)cc1[N+](=O)[O-])c1cccnc1Oc1ccccc1 [Compound C26, N-{2-[2-nitro-4-(trifluoromethyl)anilino]ethyl}-2-phenoxynicotinamide] | > 256 µM | > 256 µM | > 256 µM | > 256 µM | > 256 µM | 72 ± 6% | > 256 µM | 84 ± 4% | > 256 µM | > 256 µM | > 256 µM | > 256 µM | > 256 µM | > 256 µM | – | – | – | – | – | –
NS(=O)(=O)c1ccc(NC(=O)CC(CC(=O)O)c2ccccc2)cc1 (stereo not shown) [Compound C17, 5-[4-(aminosulfonyl)anilino]-5-oxo-3-phenylpentanoic acid] | > 256 µM | > 256 µM | > 256 µM | > 256 µM | > 256 µM | – | > 256 µM | – | > 256 µM | > 256 µM | > 256 µM | > 256 µM | > 256 µM | > 256 µM | – | – | – | – | – | –
COc1ccc(NC(=O)CC(CC(=O)O)c2cc(OC)c(OC)c(OC)c2)cc1 (stereo not shown) [Compound C11, 5-(4-methoxyanilino)-5-oxo-3-(3,4,5-trimethoxyphenyl)pentanoic acid] | > 256 µM | > 256 µM | > 256 µM | > 64 µM | > 256 µM | – | > 64 µM | – | > 256 µM | > 256 µM | > 256 µM | > 256 µM | > 256 µM | > 64 µM | > 256 µM | > 256 µM | > 64 µM | > 256 µM | > 64 µM | –
Cc1ccc(OCC2SCCN2C(=O)c2c(-c3c(Cl)cccc3Cl)noc2C)c([N+](=O)[O-])c1 (stereo not shown) [Compound C25, [3-(2,6-dichlorophenyl)-5-methylisoxazol-4-yl]{2-[(4-methyl-2-nitrophenoxy)methyl]-1,3-thiazolan-3-yl}methanone] | > 256 µM | > 256 µM | > 256 µM | > 256 µM | > 256 µM | – | > 256 µM | – | > 256 µM | > 256 µM | > 256 µM | > 256 µM | > 256 µM | > 256 µM | – | – | – | – | – | –
N#Cc1ccc(C=NNC(=O)c2cnn(-c3ccc([N+](=O)[O-])cc3)c2C(F)(F)F)cc1 [Compound C10, N'-[(4-cyanophenyl)methylene]-1-(4-nitrophenyl)-5-(trifluoromethyl)-1H-pyrazole-4-carbohydrazide] | > 256 µM | > 256 µM | > 256 µM | > 64 µM | > 256 µM | – | > 64 µM | – | > 256 µM | > 256 µM | > 256 µM | > 256 µM | > 256 µM | > 64 µM | > 256 µM | > 256 µM | > 64 µM | > 256 µM | > 64 µM | –
O=C(O)CC(CC(=O)Nc1ccc2ccccc2n1)c1ccccc1 (stereo not shown) [Compound C4, 5-oxo-3-phenyl-5-(2-quinolinylamino)pentanoic acid] | > 256 µM | > 256 µM | > 256 µM | > 64 µM | > 256 µM | – | > 64 µM | – | > 256 µM | > 256 µM | > 256 µM | > 256 µM | > 256 µM | > 64 µM | > 256 µM | > 256 µM | > 64 µM | > 256 µM | > 64 µM | –
N#CC(=Cc1cccc([N+](=O)[O-])c1)c1nn(-c2ccccc2)c(-n2cccc2)c1C#N [Compound C8, 3-[1-cyano-2-(3-nitrophenyl)vinyl]-1-phenyl-5-(1H-pyrrol-1-yl)-1H-pyrazole-4-carbonitrile] | > 256 µM | > 256 µM | > 256 µM | > 64 µM | > 256 µM | – | > 64 µM | – | > 256 µM | > 256 µM | > 256 µM | > 256 µM | > 256 µM | > 64 µM | > 256 µM | > 256 µM | > 64 µM | > 256 µM | > 64 µM | –
CC1=C(C)CC(C(=O)Nc2ccc(Oc3ccc(Cl)cc3)cc2)C(C(=O)O)C1 (stereo not shown) [Compound C12, 6-{[4-(4-chlorophenoxy)anilino]carbonyl}-3,4-dimethylcyclohex-3-ene-1-carboxylic acid] | > 256 µM | > 256 µM | > 256 µM | > 256 µM | > 256 µM | – | > 256 µM | – | > 256 µM | > 256 µM | > 256 µM | > 256 µM | > 256 µM | > 256 µM | – | – | – | – | – | neither binder nor inhibitor
O=C(O)C(=Cc1ccc2c(c1)OCO2)NC(=O)c1ccccc1 [Compound C14, 3-(1,3-benzodioxol-5-yl)-2-(benzoylamino)acrylic acid] | > 256 µM | > 256 µM | > 256 µM | > 64 µM | > 256 µM | – | > 64 µM | – | > 256 µM | > 256 µM | > 256 µM | > 256 µM | > 256 µM | > 64 µM | > 256 µM | > 256 µM | > 64 µM | > 256 µM | > 64 µM | –
